{"source": "patent US5977144A", "about": "(priority 1997, dated 1999)", "key": {"[1]": {"target": "T1, alpha4beta2 receptor (cytisine binding, rat brain membranes) (Rattus norvegicus, UniProt P09483+P12390)", "T1 construct": "from tissue; host or cells: rat brain membranes", "T1 sequence (P09483 31-630)": "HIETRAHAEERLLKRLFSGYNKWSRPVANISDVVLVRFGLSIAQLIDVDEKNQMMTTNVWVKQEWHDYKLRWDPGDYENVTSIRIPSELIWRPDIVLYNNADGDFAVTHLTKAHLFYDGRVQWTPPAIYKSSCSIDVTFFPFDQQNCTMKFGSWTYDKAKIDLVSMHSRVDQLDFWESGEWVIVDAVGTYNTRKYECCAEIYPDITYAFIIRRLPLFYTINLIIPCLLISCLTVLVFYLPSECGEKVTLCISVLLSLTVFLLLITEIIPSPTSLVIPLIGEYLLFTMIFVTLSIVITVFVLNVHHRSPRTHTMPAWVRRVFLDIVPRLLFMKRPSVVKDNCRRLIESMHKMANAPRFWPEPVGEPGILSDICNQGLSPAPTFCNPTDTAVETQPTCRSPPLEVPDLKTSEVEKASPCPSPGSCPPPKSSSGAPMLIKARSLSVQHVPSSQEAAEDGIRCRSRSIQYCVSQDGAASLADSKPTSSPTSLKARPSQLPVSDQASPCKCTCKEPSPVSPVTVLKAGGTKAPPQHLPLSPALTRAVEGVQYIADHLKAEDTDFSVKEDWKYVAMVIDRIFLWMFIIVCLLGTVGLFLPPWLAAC", "T1 sequence (P12390 25-500)": "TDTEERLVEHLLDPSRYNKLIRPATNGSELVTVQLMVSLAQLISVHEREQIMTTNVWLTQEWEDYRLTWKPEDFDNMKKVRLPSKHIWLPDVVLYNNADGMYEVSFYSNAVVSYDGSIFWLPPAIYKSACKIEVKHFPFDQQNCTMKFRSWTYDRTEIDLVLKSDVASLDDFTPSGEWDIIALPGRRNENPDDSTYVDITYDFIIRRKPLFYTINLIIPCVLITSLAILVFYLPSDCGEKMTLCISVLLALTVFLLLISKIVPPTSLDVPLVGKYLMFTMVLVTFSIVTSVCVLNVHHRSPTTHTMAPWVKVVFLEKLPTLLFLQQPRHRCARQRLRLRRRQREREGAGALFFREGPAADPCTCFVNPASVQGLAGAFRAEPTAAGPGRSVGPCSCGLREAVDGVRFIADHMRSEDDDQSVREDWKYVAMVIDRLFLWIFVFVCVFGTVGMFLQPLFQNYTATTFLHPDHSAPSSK", "assay": "biochemical", "conditions": "1 μM (Table 2); read-out: alpha4beta2 binding: % inhibition of cytistine binding", "text": "Further, the cinnamylidene-anabaseines displaced high affinity cytisine binding to rat brain membranes with lower affinity than other types of benzylidene-anabaseines. These observations are consistent with the cinnamylidene-anabaseines having some selectivity for alpha7 receptor subtypes over other types of nicotinic receptors, especially alpha4beta2 receptors, based on the types of receptors to which alpha-bungarotoxin and cytisine bind to in brain."}, "[2]": {"target": "T2, rat alpha4beta2 receptor (Rattus norvegicus, UniProt P09483+P12390)", "T2 sequence (P09483 31-630)": "as the sequence (P09483 31-630) above", "T2 sequence (P12390 25-500)": "as the sequence (P12390 25-500) above", "assay": "Antagonism of alpha4beta2 receptors in oocytes (residual inhibition of ACh response after drug)", "type": "cell-based", "conditions": "xenopus oocytes", "description": "Oocytes were prepared and recordings made as described previously (de Fiebre, et al., 1995). Frogs were anesthetized by submersion in 0.1% (3)-aminobenzoic acid ethyl ester and several lobes of the ovary surgically removed through a small incision in the abdomen wall. Oocytes were freed from the follicle cells by treatment with collagenase (in calcium-free Barth's solution: 88 mM NaCl, 1 mM KCl, 15 mM Hepes pH 7.6, 0.33 mM MgSO4, 0.1 mg/ml gentamicin sulfate) for 2 hr at room temperature and Stage 5 oocytes were isolated. Oocytes were rinsed and stored at 18° C. in Barth's saline (88 mM NaCl, 1 mM KCl, 15 mM Hepes pH 7.6, 0.3 mM Ca(NO3)2, 0.41 mM CaCl2, 0.82 mM MgSO4, 0.1 mg/ml gentamicin sulfate) before and after microinjection with RNA. Microinjection was conducted with a Drummond Scientific \"Nanoject Variable\" automatic injector. Oocytes were injected with a 50 nl solution of specified rat nicotinic subunit mRNA species (2-10 mg/ml; derived from the cDNA containing HIP 306 plasmid kindly provided by Dr. Jim Boulter, Salk Institute) and incubated 2-7 days at 18° C. before electrophysiological recording. electrophysiological recordings, oocytes were perfused in a Warner Instruments RC-8 recording chamber with a perfusion solution containing 115 mM NaCl, 2.5 mM KCl, 10 mM Hepes pH 7.2, 1.8 mM CaCl2 and 1 μM atropine to block muscarinic responses. Perfusion was continuous at a rate of 10 ml/min. Drags were diluted in perfusion solution and applied using a solenoid valve to switch from perfusion to drug solutions. Current responses to drug administration were studied under two electrode voltage clamp at a holding potential of -70 mV using a Dagan Corp. TEV-200 voltage clamp connected to a 386-SX IBM computer using a TL-1 DMA interface (Axon Instruments). […] Drug responses are analyzed with PClamp software (Axon Instruments). […]\n(§1) Antagonist properties subsequent to agonist activity were measured as a decrease in responsiveness to ACh applied 5 min after compound-application, normalized to ACh application instead of the anabaseine-derivative (FIG. 13A AND FIG. 13B)."}, "[3]": {"target": "T3, rat alpha7 receptor (Rattus norvegicus, UniProt Q05941)", "T3 sequence (Q05941 23-502)": "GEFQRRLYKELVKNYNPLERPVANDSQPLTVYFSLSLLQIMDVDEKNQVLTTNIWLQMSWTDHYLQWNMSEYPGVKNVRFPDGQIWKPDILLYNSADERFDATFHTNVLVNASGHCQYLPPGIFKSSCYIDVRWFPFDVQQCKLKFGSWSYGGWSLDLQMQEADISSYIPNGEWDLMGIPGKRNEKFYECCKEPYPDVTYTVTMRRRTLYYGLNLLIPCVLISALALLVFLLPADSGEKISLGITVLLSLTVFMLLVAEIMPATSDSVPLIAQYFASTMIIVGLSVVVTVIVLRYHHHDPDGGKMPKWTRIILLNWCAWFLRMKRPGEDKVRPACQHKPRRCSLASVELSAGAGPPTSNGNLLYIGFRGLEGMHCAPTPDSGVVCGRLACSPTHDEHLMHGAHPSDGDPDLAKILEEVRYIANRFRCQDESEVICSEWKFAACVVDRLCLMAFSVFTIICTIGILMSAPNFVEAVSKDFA", "assay": "cell-based", "set-up": "Oocytes Antagonist: unit not given here", "conditions": "for Oocytes Antagonist: Table 4", "description": "FIG. 13B. Effects of chronic injections of DMXB or nicotine on high affinity [^3 H]ACh or [^125 I]α-bungarotoxin (BTX) binding in rat neocortices. Adult male rats were injected with saline vehicle, 1 mg/kg DMXB or 0.2 mg/kg nicotine (NIC) (IP) daily for 2 weeks. At that time, neocortices were removed and assayed for high affinity [^3 H]ACh or [^125 I]α-bungarotoxin binding as described in the text. […] Responses of rat α7 AChR to 3-CA, 2-MeOCA and 4-MeOCA. […] All responses are expressed relative to the oocyte-response to 500 μM ACh applied 5 min prior to the experimental agonist application.\n(§2) Oocytes were prepared and recordings made as described previously (de Fiebre, et al., 1995). Frogs were anesthetized by submersion in 0.1% (3)-aminobenzoic acid ethyl ester and several lobes of the ovary surgically removed through a small incision in the abdomen wall. Oocytes were freed from the follicle cells by treatment with collagenase (in calcium-free Barth's solution: 88 mM NaCl, 1 mM KCl, 15 mM Hepes pH 7.6, 0.33 mM MgSO4, 0.1 mg/ml gentamicin sulfate) for 2 hr at room temperature and Stage 5 oocytes were isolated. Oocytes were rinsed and stored at 18° C. in Barth's saline (88 mM NaCl, 1 mM KCl, 15 mM Hepes pH 7.6, 0.3 mM Ca(NO3)2, 0.41 mM CaCl2, 0.82 mM MgSO4, 0.1 mg/ml gentamicin sulfate) before and after microinjection with RNA. Microinjection was conducted with a Drummond Scientific \"Nanoject Variable\" automatic injector. Oocytes were injected with a 50 nl solution of specified rat nicotinic subunit mRNA species (2-10 mg/ml; derived from the cDNA containing HIP 306 plasmid kindly provided by Dr. Jim Boulter, Salk Institute) and incubated 2-7 days at 18° C. before electrophysiological recording. electrophysiological recordings, oocytes were perfused in a Warner Instruments RC-8 recording chamber with a perfusion solution containing 115 mM NaCl, 2.5 mM KCl, 10 mM Hepes pH 7.2, 1.8 mM CaCl2 and 1 μM atropine to block muscarinic responses. Perfusion was continuous at a rate of 10 ml/min. Drags were diluted in perfusion solution and applied using a solenoid valve to switch from perfusion to drug solutions. Current responses to drug administration were studied under two electrode voltage clamp at a holding potential of -70 mV using a Dagan Corp. TEV-200 voltage clamp connected to a 386-SX IBM computer using a TL-1 DMA interface (Axon Instruments). Micropipettes were filled with 3 M KCl and had resistances of 0.5-2 MOhms. Drug responses are analyzed with PClamp software (Axon Instruments). Oocytes with resting potentials of less than -30 mV were rejected.\nas §1"}, "[4]": {"target": "alpha7 receptor (high affinity alpha-bungarotoxin binding, rat brain membranes) (Rattus norvegicus, UniProt Q05941)", "sequence (Q05941 23-502)": "as above", "assay": "biochemical"}, "[5]": {"target": "T3, rat alpha7 receptor", "assay": "cell-based", "description": "FIG. 13A. Effects of chronic injections of DMXB or nicotine on high affinity [^3 H]ACh or [^125 I]α-bungarotoxin (BTX) binding in rat neocortices. Adult male rats were injected with saline vehicle, 1 mg/kg DMXB or 0.2 mg/kg nicotine (NIC) (IP) daily for 2 weeks. At that time, neocortices were removed and assayed for high affinity [^3 H]ACh or [^125 I]α-bungarotoxin binding as described in the text. […] Responses of rat α7 ACHR to 3-CA, 2-MeOCA and 4-MeOCA. Concentration-response relationships for the peak agonist activated currents of oocytes injected with RNA coding for the rat α7 subunit. All responses were initially measured relative to the individual oocyte-response to 500 μM ACh, applied 5 min prior to drug-application. Responses were normalized relative to the maximum response obtainable with ACh so that a response of 1 represents full efficacy. The ratio of 500 μM ACh control response to ACh maximum was taken from Papke et al., 1997.\nas §2"}, "[6]": {"target": "T2, rat alpha4beta2 receptor", "assay": "Activation of alpha4beta2 receptors expressed in Xenopus oocytes", "type": "cell-based", "conditions": "read-out: alpha4beta2 activation: % response observed with 10 μM acetylcholine"}, "[7]": {"target": "T2, rat alpha4beta2 receptor", "assay": "Activation of alpha4beta2 receptors expressed in Xenopus oocytes", "type": "cell-based", "description": "FIG. 14A. Responses of α4β2 ACHR to 3-CA, 2-MeOCA or 4-MeOCA. Concentration-response relationships for the peak agonist activated currents of oocytes injected with RNA coding for rat α4β2 subunits. Responses are first expressed relative to the response to 10 μM ACh, applied 5 min before drug-application, then normalized to the maximum response obtainable with ACh so that a response of 1 represents full efficacy. The ratio between 10 μM ACh and maximum ACh response was determined in separate experiments.\nas §2"}, "[8]": {"system": "rat primary neocortical neurons", "type": "cell-based"}, "[9]": {"system": "fimbrial transections", "conditions": "Meyer et al., in press; cited from earlier work"}, "[10]": {"system": "rat primary neocortical neurons", "conditions": "Shimohama et al., in press; cited from earlier work"}, "[11]": {"system": "rat", "conditions": "in vivo", "quoted_text": "Eleven male Sprague-Dawley rats were first trained to press the left lever in a two lever operant conditioning chamber. They had limited access to food for 23 hours prior to the first training session and then received 20 grams of food for the remainder of the study. Once subjects reliably pressed the left lever, a catheter was surgically implanted into the right jugular vein. The catheter consisted of three separate pieces of tubing, a 37 mm length of silicon rubber tubing which entered the circulatory system (Silastic Medical Grade tubing), a 65 mm length of polyethylene tubing (Intramedic, PE10) and a 170 mm length of polyethylene tubing with the same internal diameter (Intramedic, PE20). The catheter exited between the scapulae and could be hooked up to a swivel which itself was connected to a pneumatic syringe. […] Once subjects had recovered from surgery they were trained to complete a fixed ratio 2 schedule (FR 2) to activate the pneumatic syringe. […] Each daily experimental session lasted 50 minutes. After several sessions under these conditions, subjects received an intraperitoneal (IP) injection of physiological saline (1 ml/kg), 15 min prior to the start of the self-administration session. The next day subjects were IP injected with 8 mg/kg of GTS-21, also 15 minutes before the beginning of the session."}, "[12]": {"conditions": "Table 4, read-out: Receptor Binding α7"}, "[13]": {"conditions": "Table 4, read-out: Oocytes Agonist α7"}, "[14]": {"conditions": "Table 4, read-out: Oocytes Agonist α4"}}, "note": "“Also recorded” adds a separate entry of the source. Like-named read-outs stand apart in the source and are kept apart here."}
{"molecule": "COc1ccccc1/C=C/C=C1\\CCCN=C1c1cccnc1", "note": "[2-MeOCA, E,E-3-(2-Methoxycinnamylidene)anabaseine]", "values": [{"measurement": "inhibition at 1 µM", "setting": "[1]", "result": 29, "unit": "%"}, {"measurement": "alpha4beta2 antagonism: % of antagonism of acetylcholine administered after drug", "setting": "[2]", "result": 10}, {"measurement": "inhibition of α7 receptors, estimated", "setting": "[3]; 10 μM, estimated from oocyte results", "result": "over 90%"}, {"measurement": "inhibition at 10 µM", "setting": "[3]; 10 μM, ACh application 5 min later, read-out: long term inhibition of α7 receptors", "result": 90, "unit": "%"}, {"measurement": "IC50", "setting": "[3]; ACh applied 5 min after compound, read-out: IC50, antagonism subsequent to agonist activity", "result": "2.3 ± 0.7", "unit": "µM"}, {"measurement": "Oocytes Antagonist", "setting": "[3]", "result": ".08"}, {"measurement": "inhibition at 1 µM", "setting": "[4]; 1 μM (Table 2), read-out: alpha7 binding: % inhibition of alphabungarotoxin binding", "result": 94.9, "unit": "%"}, {"measurement": "inhibition at 1 µM", "setting": "[4]; [12]", "result": 94.9, "unit": "%"}, {"measurement": "IC50", "setting": "[4]; rat brain membranes, read-out: IC50, [125I]α-bungarotoxin binding", "result": 0.008, "unit": "µM"}, {"measurement": "selectivity α7 over α4β2 (in words)", "setting": "[5]", "result": "selectively activate α7 receptors over α4β2"}, {"measurement": "Emax", "setting": "[5]; [13]", "result": 96, "unit": "%"}, {"measurement": "α7 receptor activation (in words)", "setting": "[5]; oocyte expression system", "result": "fully efficaciously"}, {"measurement": "EC50", "setting": "[5]; oocytes, read-out: α7 EC50", "result": "6.2 ± 2.2", "unit": "µM"}, {"measurement": "Emax", "setting": "[5]; read-out: alpha7 activation: % response observed with 500 μM acetylcholine", "result": 96, "unit": "%"}, {"measurement": "Emax", "setting": "[6]", "result": "< 3", "unit": "%"}, {"measurement": "Emax", "setting": "[7]; [14]", "result": 2.2, "unit": "%"}]}
{"molecule": "COc1ccc(/C=C2\\CCCN=C2c2cccnc2)c(OC)c1", "note": "[DMXB, 3-(2,4-Dimethoxybenzylidene) anabaseine]", "values": [{"measurement": "protection against glutamate, concomitant (in words)", "setting": "[8]; 10 μM, with 1 mM glutamate", "result": "not observed when administered concomitantly with glutamate"}, {"measurement": "protection against NMDA receptor-mediated toxicity (in words)", "setting": "[8]; 24 hr prior to glutamate or NMDA", "result": "protects rat primary neocortical neurons against NMDA-receptor mediated excitotoxicity; also recorded: protected against NMDA receptor-mediated toxicity"}, {"measurement": "effect on kainate-induced neurotoxicity (in words)", "setting": "[8]; kainate", "result": "no effect"}, {"measurement": "activity against fimbrial transections in vivo (in words)", "setting": "[9]", "result": "neuroprotective activity"}, {"measurement": "activity against NMDA-receptor activation (in words)", "setting": "[10]", "result": "neuroprotective activity"}, {"measurement": "Oocytes Antagonist", "setting": "[3]", "result": ".20"}, {"measurement": "inhibition at 1 µM", "setting": "[4]; [12]", "result": 52, "unit": "%"}, {"measurement": "inhibition at 1 µM", "setting": "[4]; concentration of 1 μM (Table 1), read-out: alpha7 binding: % Inhibition of high affinity alphabungarotoxin binding (1 nM)", "result": 52, "unit": "%"}, {"measurement": "Emax", "setting": "[5]; [13]", "result": 20, "unit": "%"}, {"measurement": "Emax", "setting": "[5]; read-out: alpha7 activation: response, normalized to 500 μM acetylcholine (maximum response)", "result": 20, "unit": "%"}, {"measurement": "nicotine self-administration (in words)", "setting": "[11]", "result": "inhibits nicotine self-administration; also recorded: less likely to self-administer nicotine"}, {"measurement": "Emax", "setting": "[7]; [14]", "result": "< 1", "unit": "%"}, {"measurement": "Emax", "setting": "[7]; read-out: alpha4beta2 activation: response compared to maximal acetylcholine", "result": "< 1", "unit": "%"}]}
